According to patent US9113629B2, “4-amino-6-(4-substituted-phenyl)-picolinates and 6-amino-2-(4-substituted-phenyl)-pyrimidine-4-carboxylates and their use as herbicides” (DOW AGROSCIENCES LLC, priority 2013, dated 2015):
Where two headings read alike, the source gives them in different places.

How the values were obtained:
[1] = test system: Key Grass and Sedge Weeds as well as Grass Crops; test: Post-emergent Test II herbicidal activity (Table 6); format: in vivo; conditions: post-emergence, 336 h; for pest or weed control at 70 g/ha: application rate 70 g ai/ha; for pest or weed control at 140 g/ha: application rate 140 g ai/ha
Procedure, shortened: (§1)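 Foliar application at 187 L/ha to greenhouse-grown seedlings (first or second true leaf); subirrigation thereafter. Visual 0–100% injury at 14 d relative to untreated plants.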

[2] = test system: Key Broadleaf Weed and Crop Species; test: Post-emergent Test II herbicidal activity (Table 5); format: in vivo; conditions: post-emergence, 336 h, post-emergent, 14 days after application; for pest or weed control at 70 g/ha: application rate 70 g ai/ha; for pest or weed control at 140 g/ha: application rate 140 g ai/ha
Procedure, shortened: as §1

[3] = CYPES: yellow nutsedge (Cyperus esculentus), read-out: Visual Growth Reduction (%) 14 Days After Application, CYPES
[4] = DIGSA: crabgrass (Digitaria sanguinalis), read-out: Visual Growth Reduction (%) 14 Days After Application, DIGSA
[5] = ECHCG: barnyardgrass (Echinochloa crus-galli), read-out: Visual Growth Reduction (%) 14 Days After Application, ECHCG
[6] = ORYSA: rice (Oryza sativa), read-out: Visual Growth Reduction (%) 14 Days After Application, ORYSA
[7] = SETFA: giant foxtail (Setaria faberi), read-out: Visual Growth Reduction (%) 14 Days After Application, SETFA
[8] = SORVU: grain sorghum (Sorghum vulgare), read-out: Visual Growth Reduction (%) 14 Days After Application, SORVU
[9] = TRZSS (wheat, Triticum aestivum), read-out: Visual Growth Reduction (%) 14 Days After Application, TRZSS
[10] = ZEAMX: maize, corn (Zea mays), read-out: Visual Growth Reduction (%) 14 Days After Application, ZEAMX
[11] = ABUTH: velvetleaf (Abutilon theophrasti), read-out: Visual Growth Reduction (%) 14 Days After Application, ABUTH
[12] = AMARE: redroot pigweed (Amaranthus retroflexus), read-out: Visual Growth Reduction (%) 14 Days After Application, AMARE
[13] = BRSNN: oilseed-rape, canola (Brassica napus), read-out: Visual Growth Reduction (%) 14 Days After Application, BRSNN
[14] = CHEAL: lambsquarters (Chenopodium album), read-out: Visual Growth Reduction (%) 14 Days After Application, CHEAL
[15] = EPHHL: wild poinsettia (Euphorbia heterophylla), read-out: Visual Growth Reduction (%) 14 Days After Application, EPHHL
[16] = HELAN: sunflower (Helianthus annuus), read-out: Visual Growth Reduction (%) 14 Days After Application, HELAN
[17] = VIOTR: wild pansy (Viola tricolor), read-out: Visual Growth Reduction (%) 14 Days After Application, VIOTR

SMILES: Nc1c(F)c(-c2cc(F)c(OC(F)F)cc2F)nc(C(=O)O)c1Cl [Compound 195]
- melting point: 162 to 165 °C
- pest or weed control at 70 g/ha [1, 3]: 0 to 29%
- pest or weed control at 140 g/ha [1, 3]: 0 to 29%
- pest or weed control at 70 g/ha [1, 4]: 0 to 29%
- pest or weed control at 140 g/ha [1, 4]: 0 to 29%
- pest or weed control at 70 g/ha [1, 5]: 0 to 29%
- pest or weed control at 140 g/ha [1, 5]: 0 to 29%
- pest or weed control at 70 g/ha [1, 6]: 0 to 29%
- pest or weed control at 140 g/ha [1, 6]: 0 to 29%
- pest or weed control at 70 g/ha [1, 7]: 0 to 29%
- pest or weed control at 140 g/ha [1, 7]: 0 to 29%
- pest or weed control at 70 g/ha [1, 8]: 0 to 29%
- pest or weed control at 140 g/ha [1, 8]: 0 to 29%
- pest or weed control at 70 g/ha [1, 9]: 0 to 29%
- pest or weed control at 140 g/ha [1, 9]: 0 to 29%
- pest or weed control at 70 g/ha [1, 10]: 0 to 29%
- pest or weed control at 140 g/ha [1, 10]: 0 to 29%
- pest or weed control at 70 g/ha [2, 11]: 0 to 29%
- pest or weed control at 140 g/ha [2, 11]: 0 to 29%
- pest or weed control at 70 g/ha [2, 12]: 0 to 29%
- pest or weed control at 140 g/ha [2, 12]: 45 to 59%
- pest or weed control at 70 g/ha [2, 13]: 45 to 59%
- pest or weed control at 140 g/ha [2, 13]: 60 to 74%
- pest or weed control at 70 g/ha [2, 14]: 45 to 59%
- pest or weed control at 140 g/ha [2, 14]: 75 to 84%
- pest or weed control at 70 g/ha [2, 15]: 30 to 44%
- pest or weed control at 140 g/ha [2, 15]: 30 to 44%
- pest or weed control at 70 g/ha [2, 16]: 60 to 74%
- pest or weed control at 140 g/ha [2, 16]: 85 to 94%
- pest or weed control at 70 g/ha [2, 17]: 0 to 29%
- pest or weed control at 140 g/ha [2, 17]: 0 to 29%

SMILES: COc1c(N)nc(-c2cc(F)c(C)cc2F)nc1C(=O)O [Compound 201]
- melting point: 135.9 to 137.7 °C
- pest or weed control at 70 g/ha [1, 3]: 0 to 29%
- pest or weed control at 140 g/ha [1, 3]: 0 to 29%
- pest or weed control at 70 g/ha [1, 4]: 0 to 29%
- pest or weed control at 140 g/ha [1, 4]: 0 to 29%
- pest or weed control at 70 g/ha [1, 5]: 60 to 74%
- pest or weed control at 140 g/ha [1, 5]: 45 to 59%
- pest or weed control at 70 g/ha [1, 6]: 0 to 29%
- pest or weed control at 140 g/ha [1, 6]: 0 to 29%
- pest or weed control at 70 g/ha [1, 7]: 0 to 29%
- pest or weed control at 140 g/ha [1, 7]: 30 to 44%
- pest or weed control at 70 g/ha [1, 8]: 0 to 29%
- pest or weed control at 140 g/ha [1, 8]: 45 to 59%
- pest or weed control at 70 g/ha [1, 9]: 0 to 29%
- pest or weed control at 140 g/ha [1, 9]: 0 to 29%
- pest or weed control at 70 g/ha [1, 10]: 0 to 29%
- pest or weed control at 140 g/ha [1, 10]: 0 to 29%
- pest or weed control at 70 g/ha [2, 11]: 30 to 44%
- pest or weed control at 140 g/ha [2, 11]: 60 to 74%
- pest or weed control at 70 g/ha [2, 12]: 30 to 44%
- pest or weed control at 140 g/ha [2, 12]: 60 to 74%
- pest or weed control at 70 g/ha [2, 13]: 95 to 100%
- pest or weed control at 140 g/ha [2, 13]: 95 to 100%
- pest or weed control at 70 g/ha [2, 14]: 85 to 94%
- pest or weed control at 140 g/ha [2, 14]: 75 to 84%
- pest or weed control at 70 g/ha [2, 15]: 45 to 59%
- pest or weed control at 140 g/ha [2, 15]: 85 to 94%
- pest or weed control at 70 g/ha [2, 16]: 60 to 74%
- pest or weed control at 140 g/ha [2, 16]: 75 to 84%
- pest or weed control at 70 g/ha [2, 17]: 0 to 29%
- pest or weed control at 140 g/ha [2, 17]: 0 to 29%

SMILES: COc1c(N)nc(-c2cc(F)c(C(F)F)cc2F)nc1C(=O)O [Compound 203]
- melting point: 143.7 to 145.5 °C
- pest or weed control at 70 g/ha [1, 3]: 0 to 29%
- pest or weed control at 140 g/ha [1, 3]: 75 to 84%
- pest or weed control at 70 g/ha [1, 4]: 0 to 29%
- pest or weed control at 140 g/ha [1, 4]: 0 to 29%
- pest or weed control at 70 g/ha [1, 5]: 0 to 29%
- pest or weed control at 140 g/ha [1, 5]: 0 to 29%
- pest or weed control at 70 g/ha [1, 6]: 0 to 29%
- pest or weed control at 140 g/ha [1, 6]: 0 to 29%
- pest or weed control at 70 g/ha [1, 7]: 0 to 29%
- pest or weed control at 140 g/ha [1, 7]: 75 to 84%
- pest or weed control at 70 g/ha [1, 8]: 0 to 29%
- pest or weed control at 140 g/ha [1, 8]: 0 to 29%
- pest or weed control at 70 g/ha [1, 9]: 0 to 29%
- pest or weed control at 140 g/ha [1, 9]: 0 to 29%
- pest or weed control at 70 g/ha [1, 10]: 0 to 29%
- pest or weed control at 140 g/ha [1, 10]: 0 to 29%
- pest or weed control at 70 g/ha [2, 11]: 30 to 44%
- pest or weed control at 140 g/ha [2, 11]: 30 to 44%
- pest or weed control at 70 g/ha [2, 12]: 45 to 59%
- pest or weed control at 140 g/ha [2, 12]: 95 to 100%
- pest or weed control at 70 g/ha [2, 13]: 30 to 44%
- pest or weed control at 140 g/ha [2, 13]: 45 to 59%
- pest or weed control at 70 g/ha [2, 14]: 85 to 94%
- pest or weed control at 140 g/ha [2, 14]: 95 to 100%
- pest or weed control at 70 g/ha [2, 15]: 95 to 100%
- pest or weed control at 140 g/ha [2, 15]: 95 to 100%
- pest or weed control at 70 g/ha [2, 16]: 60 to 74%
- pest or weed control at 140 g/ha [2, 16]: 75 to 84%
- pest or weed control at 70 g/ha [2, 17]: 0 to 29%
- pest or weed control at 140 g/ha [2, 17]: 30 to 44%
